Read-outs that look alike come from different tables or passages of the source.
How the values were obtained:
[1] = tested on: Nrf2 / ARE-dependent luciferase in AREc32 reporter cell line; test: AREc32 luciferase reporter activation (Nrf2 induction); format: cell-based, human; conditions: for EC (2-fold): Homo sapiens, Arec32; for Relative Avg AREc32 EC2X Relative to RTA402 (fold): ratio to RTA402
Description: Effect on Ludferase Reporter Activation. Nrf2 is a transcription factor that binds to the antioxidant response element (ARE) sequence in the promoter regions of its target genes. AREc32 reporter cell line (derived from human breast carcinoma MCF7 cells) was obtained was from CXR Bioscience Limited (Dundee, UK) and cultured in DMEM (low glucose) supplemented with 10% FBS, 1% penicillin/streptomycin, and 0.8 mg/ml Geneticin (G418). This cell line is stably transfected with a luciferase reporter gene under the transcriptional control of eight copies of the rat GSTA2 ARE sequence (5′-GTGACAAAGCA-3′) (Wang et al., 2006). Expression of Firefly luciferase from this reporter plasmid is controlled by binding of Nrf2 to these ARE sequences. Measurement of ARE-dependent luciferase activity allows quantitative assessment of Nrf2 induction. AREc32 cell line has previously been used in studies characterizing different Nrf2 activators (Dinkova-Kostova & Wang, 2011; Roubalová et al., 2016; Roubalová et al, 2017; Wu et al, 2012).
The effect of several compounds disclosed herein on luciferase reporter activation was assessed in the AREc32 reporter cell line (see Table 10 and Table 11). This cell line is derived from human breast carcinoma MCF-7 cells and is stably transfected with a luciferase reporter gene under the transcriptional control of eight copies of the antioxidant response element from the rat Gsta2 gene, an Nrf2 target gene (Frilling et al., 1990). AREc32 cells were plated in black 96-well plates in 200 μL media at 20,000 cells per well. Twenty-four hours after plating, cells were treated with vehicle (DMSO) or test compounds at concentrations ranging from 0.03 to 1000 nM for nineteen hours. Media was removed and 100 μL of 1:1 mixture of the One-Glo Luciferase assay reagent and culture medium was added to each well. After incubation for 5 min at room temperature, the luminescence signal was measured on a PHERAstar plate reader. The EC2X value was determined using Excel and GraphPad Prism software. The fold increase in luminescence signal for cells treated with each concentration of compound relative to cells treated with vehicle was determined and a dose-response curve was generated. The dose-response curve was fit using nonlinear regression analysis and used to extrapolate the EC2X value. The EC2X value is defined as the concentration of test compound required to increase the luminescence signal 2-fold above levels in vehicle-treated samples.

[2] = tested on: IFNγ-induced NO production in RAW 264.7 cells; test: Nitric Oxide Suppression Assay (IFNγ-induced NO, Griess nitrite readout); format: cell-based, mouse; conditions: for IC50: Mus musculus, read-out: Avg NO IC50 (nM) (Mean ± SD); for Avg NO IC50 Relative to RTA402 (fold): Table 2, ratio to RTA402
Description: Tissue Culture: RAW 264.7, a mouse macrophage cell line, was obtained from American Type Culture Collection (Manassas VA) and maintained in the log phase of growth in Roswell Park Memorial Institute Medium 1640 (RPMI 1640) supplemented with 10% heat inactivated fetal bovine serum and 1% penicillin-streptomycin. Cells were cultured and maintained in a humidified incubator at 37° C. under 5% C02. Cells were sub-cultured every 2-4 days. All cell culture supplies were obtained from Life Technologies (Grand Island, NY) and VWR (Radnor, PA).
Nitric Oxide Suppression Assay. RAW 264.7 cells were plated 1 day in advance of experimental treatments at a concentration of 30,000 cells per well onto Falcon-96 well clear bottom plates (Corning, NY) in a total volume of 200 μL per well using RPMI 1640 supplemented with 0.5% fetal bovine serum and 1% penicillin-streptomycin. The next day, cells were pretreated with compounds serially diluted from 1000×stocks. All compounds were dissolved in dimethyl sulfoxide (DMSO) usually at 10 mM stock solutions. Compounds were subsequently diluted in DMSO and RPMI 1640. Each well received a final concentration of 0.1% DMSO. Cells were pretreated for 2 hours and incubation at 37° C., followed by treatment with 20 ng/mL of interferon gamma (R&D Systems, Minneapolis, MN) per well for 24 hours. The next day, a nitrite standard was serially diluted from 100 μM to 1.6 μM in RPMI 1640. Afterwards, 50 μL of cell culture supernatant was transferred from each well into a new Falcon-96 well clear bottom plate. Nitrite was measured as surrogate for nitric oxide using Promega's Griess Detection Kit #G2930 (Madison, WI) which involves the addition of 50 μL of the provided sulfanilamide solution to each well of the transferred cell culture supernatant and standards, followed by a 10-minute incubation at room temperature. Next, 50 μL of the provided N-1-napthylethylenediamine dihydrochloride (NED) solution was added to the sulfanilamide reaction and incubated for 10 minutes at room temperature in the dark. Afterwards, air bubbles were removed using ethanol vapor and absorbance was measured using a Spectramax M2e plate reader with a wavelength set to 525 nm. Viability was assessed using WST-1 cell proliferation reagent from Roche (Basel, Switzerland). After media was removed for the Nitric Oxide suppression assay, 15 μL of WST-1 reagent was added to each well of cells. Plates were briefly mixed on an orbital shaker and the cells were incubated at 37° C. for 30-90 minutes. Absorbance was measured using a Spectramax M2e plate reader with wavelengths set to 440 nm and 700 nm.
For the ability of compounds to suppress the increase in nitric oxide release caused by interferon gamma, the absolute amount of nitrite that was produced in each well was extrapolated from the nitrite standards using a linear regression fit. All values were then normalized to the DMSO-interferon gamma treated wells and plotted as percent nitric oxide. IC50 values were calculated using Excel and/or GraphPad Prism (San Diego, CA).

[3] = Table 2, concentration increasing luminescence 2-fold above vehicle, 19 h treatment, read-out: Avg AREc32 EC2X (nM) (Mean ± SD)
[4] = RAW264.7, Table 2, RAW 264.7 cells, 2 h pretreatment, 20 ng/mL interferon gamma 24 h
[5] = Table 3, ursolic acid derivatives, read-out: Avg ARE EC-2X (nM) (Mean ± SD)
[6] = RAW264.7, Table 3, ursolic acid derivatives

Row | SMILES | EC (2-fold) [1, 3] [nM] | Relative Avg AREc32 EC2X Relative to RTA402 (fold) ([1]; Table 2) | IC50 [2, 4] [nM] | Avg NO IC50 Relative to RTA402 (fold) [2] [fold] | EC (2-fold) [1, 5] [nM] | IC50 [2, 6] [nM]
1 | C[C@@H]1[C@H]2[C@H]3C(=O)C=C4[C@@]5(C)C=C(C#N)C(=O)C(C)(C)[C@@H]5CC[C@@]4(C)[C@]3(C)CC[C@@]2(c2nc(CF)no2)CC[C@H]1C [Compound T11] | 8.74 ± 2.61 | 0.685 ± 0.050 | 4.33 ± 1.45 | 2.10 ± 0.49 |  | 
2 | C[C@H]1[C@H](C)CCC23CC[C@@]4(C)[C@]5(C)CC[C@H]6C(C)(C)C(=O)C(C#N)=C[C@]6(C)C5=CC(=O)[C@]4(OC2)[C@H]13 [Compound T12] | 9.2 ± 2.7 | 0.724 ± 0.074 | 6.75 ± 2.19 | 3.29 ± 0.81 |  | 
3 | C[C@@H]1[C@H]2[C@H]3C(=O)C=C4[C@@]5(C)C=C(C#N)C(=O)C(C)(C)[C@@H]5CC[C@@]4(C)[C@]3(C)CC[C@@]2(CO)CC[C@H]1C [Compound T13] | 4.95 ± 0.63 | 0.358 ± 0.016 | 1.86 ± 0.32 | 1.25 ± 0.21 | 4.95 ± 0.63 | 1.86 ± 0.32
4 | C[C@@H]1[C@H]2[C@H]3C(=O)C=C4[C@@]5(C)C=C(C#N)C(=O)C(C)(C)[C@@H]5CC[C@@]4(C)[C@]3(C)CC[C@@]2(CN2CCC2=O)CC[C@H]1C [Compound T14] | 3.91 ± 0.52 | 0.349 ± 0.018 | 2.4 ± 1.2 | 1.27 ± 0.31 | 3.91 ± 0.52 | 2.4 ± 1.2
5 | C[C@@H]1[C@H]2[C@H]3C(=O)C=C4[C@@]5(C)C=C(C#N)C(=O)C(C)(C)[C@@H]5CC[C@@]4(C)[C@]3(C)CC[C@@]2(CN2CCCC2=O)CC[C@H]1C [Compound T15] | 5.21 ± 1.11 | 0.447 ± 0.085 | 4.2 ± 2.4 | 1.99 ± 0.20 | 5.21 ± 1.11 | 4.2 ± 2.4
6 | C[C@@H]1[C@H]2[C@H]3C(=O)C=C4[C@@]5(C)C=C(C#N)C(=O)C(C)(C)[C@@H]5CC[C@@]4(C)[C@]3(C)CC[C@@]2(N)CC[C@H]1C [Compound T16] | 20.5 ± 6 | 1.61 ± 0.084 | 15 ± 3.7 | 7.63 ± 2.99 | 20.5 ± 6 | 15 ± 3.7
7 | C[C@@H]1[C@H]2[C@H]3C(=O)C=C4[C@@]5(C)C=C(C#N)C(=O)C(C)(C)[C@@H]5CC[C@@]4(C)[C@]3(C)CC[C@@]2(NC(=O)C(C)(F)F)CC[C@H]1C [Compound T17] | 22.9 ± 2.6 | 1.92 ± 0.74 | 15 ± 5.8 | 5.83 ± 1.26 |  | 
8 | CC(=O)N[C@]12CC[C@@H](C)[C@H](C)[C@H]1[C@H]1C(=O)C=C3[C@@]4(C)C=C(C#N)C(=O)C(C)(C)[C@@H]4CC[C@@]3(C)[C@]1(C)CC2 [Compound T18] | 27.3 ± 5.8 | 1.97 ± 0.24 | 23 ± 4.1 | 13.7 ± 5.76 |  | 
9 | C[C@@H]1[C@H]2[C@H]3C(=O)C=C4[C@@]5(C)C=C(C#N)C(=O)C(C)(C)[C@@H]5CC[C@@]4(C)[C@]3(C)CC[C@@]2(CNC(=O)C2CC2)CC[C@H]1C [Compound T19] | 2.27 ± 0.52 | 0.224 ± 0.072 | 2.33 ± 1.47 | 0.74 ± 0.14 | 2.27 ± 0.52 | 2.33 ± 1.47
10 | C[C@@H]1[C@H]2[C@H]3C(=O)C=C4[C@@]5(C)C=C(C#N)C(=O)C(C)(C)[C@@H]5CC[C@@]4(C)[C@]3(C)CC[C@@]2(CNC(=O)OC(C)(C)C)CC[C@H]1C [Compound T20] | 21.5 ± 4.6 | 1.83 ± 0.41 | 12.9 ± 4.6 | 3.72 ± 0.60 | 21.5 ± 4.6 | 12.9 ± 4.6
11 | C[C@@H]1[C@H]2[C@H]3C(=O)C=C4[C@@]5(C)C=C(C#N)C(=O)C(C)(C)[C@@H]5CC[C@@]4(C)[C@]3(C)CC[C@@]2(CN)CC[C@H]1C [Compound T21] | 14.7 ± 1.3 | 1.27 ± 0.045 | 26 ± 7.6 | 10.9 ± 1.6 | 14.7 ± 1.3 | 26 ± 7.6
12 | CC(=O)NC[C@]12CC[C@@H](C)[C@H](C)[C@H]1[C@H]1C(=O)C=C3[C@@]4(C)C=C(C#N)C(=O)C(C)(C)[C@@H]4CC[C@@]3(C)[C@]1(C)CC2 [Compound T22] | 2.99 ± 1.62 | 0.244 ± 0.080 | 3.58 ± 2.16 | 0.94 ± 0.14 |  | 
13 | CCC(=O)NC[C@]12CC[C@@H](C)[C@H](C)[C@H]1[C@H]1C(=O)C=C3[C@@]4(C)C=C(C#N)C(=O)C(C)(C)[C@@H]4CC[C@@]3(C)[C@]1(C)CC2 [Compound T23] | 1.89 ± 0.91 | 0.166 ± 0.071 | 3.07 ± 1.43 | 0.80 ± 0.13 | 1.89 ± 0.91 | 3.07 ± 1.43
14 | [2H]C([2H])([2H])C(=O)NC[C@]12CC[C@@H](C)[C@H](C)[C@H]1[C@H]1C(=O)C=C3[C@@]4(C)C=C(C#N)C(=O)C(C)(C)[C@@H]4CC[C@@]3(C)[C@]1(C)CC2 [Compound T24] | 1.49 ± 0.31 | 0.126 ± 0.026 | 2.87 ± 1.67 | 0.967 ± 0.21 | 1.49 ± 0.31 | 2.87 ± 1.67
15 | C[C@@H]1[C@H]2[C@H]3C(=O)C=C4[C@@]5(C)C=C(C#N)C(=O)C(C)(C)[C@@H]5CC[C@@]4(C)[C@]3(C)CC[C@@]2(CNC(=O)C2CCC2)CC[C@H]1C [Compound T25] | 2.88 ± 0.13 | 0.259 ± 0.036 | 5.11 ± 1.69 | 1.49 ± 0.35 |  | 

Reference: patent publication US20240140986A1, “SYNTHETIC URSOLIC ACID DERIVATIVES AND METHODS OF USE THEREOF” (REATA PHARMACEUTICALS, INC., priority 2021, published 2024)
